Data from PMC9263442, “Discovery of Small Molecule KCC2 Potentiators Which Attenuate In Vitro Seizure-Like Activity in Cultured Neurons” (Frontiers in Cell and Developmental Biology, 2022).
One block for each compound: values may come before it.

Tests used:
Type in all cases: cell-based
[1] = molecular target: T1, KCC2 (Rattus norvegicus, UniProt Q63633); experiment: SuperClomeleon Cl- flux assay in HEK-293 with and without KCC2; Tl+ and […]+ influx
T1 construct: gene Slc12a5; KCC2b isoform expressed in T-REx-293 cells
T1 sequence (Q63633 43-1139 limits assumed): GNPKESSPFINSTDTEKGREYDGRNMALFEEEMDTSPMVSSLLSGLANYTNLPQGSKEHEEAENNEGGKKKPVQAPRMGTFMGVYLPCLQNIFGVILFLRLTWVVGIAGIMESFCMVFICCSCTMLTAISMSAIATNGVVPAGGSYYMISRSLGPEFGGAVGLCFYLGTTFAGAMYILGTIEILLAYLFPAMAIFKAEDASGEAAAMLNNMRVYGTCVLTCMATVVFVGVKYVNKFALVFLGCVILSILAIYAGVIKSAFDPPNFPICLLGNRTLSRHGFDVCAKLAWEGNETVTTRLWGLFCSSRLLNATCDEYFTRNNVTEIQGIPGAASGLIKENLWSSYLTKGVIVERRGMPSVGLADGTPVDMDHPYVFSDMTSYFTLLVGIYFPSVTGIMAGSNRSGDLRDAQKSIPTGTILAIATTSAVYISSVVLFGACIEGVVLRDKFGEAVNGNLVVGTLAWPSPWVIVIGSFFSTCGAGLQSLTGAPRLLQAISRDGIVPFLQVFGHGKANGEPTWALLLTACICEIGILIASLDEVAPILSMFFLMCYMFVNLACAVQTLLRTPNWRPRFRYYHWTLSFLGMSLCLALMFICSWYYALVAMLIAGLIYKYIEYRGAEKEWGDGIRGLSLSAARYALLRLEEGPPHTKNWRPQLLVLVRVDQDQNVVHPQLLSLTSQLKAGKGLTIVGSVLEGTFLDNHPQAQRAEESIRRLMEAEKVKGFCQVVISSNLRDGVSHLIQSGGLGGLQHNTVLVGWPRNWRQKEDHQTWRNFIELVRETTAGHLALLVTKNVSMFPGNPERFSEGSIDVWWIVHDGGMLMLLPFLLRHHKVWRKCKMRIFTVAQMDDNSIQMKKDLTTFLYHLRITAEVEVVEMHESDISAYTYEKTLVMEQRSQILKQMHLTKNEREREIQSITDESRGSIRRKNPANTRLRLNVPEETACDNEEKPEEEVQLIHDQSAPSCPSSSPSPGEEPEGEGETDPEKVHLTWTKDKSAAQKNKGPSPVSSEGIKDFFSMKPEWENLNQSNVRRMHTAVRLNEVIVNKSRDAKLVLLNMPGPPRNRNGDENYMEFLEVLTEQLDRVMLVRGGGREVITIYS

[2] = molecular target: T1, KCC2; experiment: SuperClomeleon Cl- flux assay in HEK-293 overexpressing KCC2
[3] = molecular target: T1, KCC2; experiment: SuperClomeleon Cl- flux assay in HEK-293 with and without KCC2

EC50 [1]: 14.2 ± 0.7 µM
SMILES: Cc1ccc(S(=O)(=O)CCCC(=O)N(CCN(C)C)c2nc3c(C)cccc3s2)cc1 [VU0500469, N-(2-(Dimethylamino)Ethyl)-N-(4-Methylbenzo[d]Thiazol-2-yl)-4-Tosylbutanamide]

EC50 [2]: 17.1 ± 1.2 µM
SMILES: Cc1cccc2sc(N(CCN(C)C)C(=O)CCCS(=O)(=O)c3ccc(F)cc3)nc12 [VU0916219, N-(2-(Dimethylamino)Ethyl)-4-((4-Fluorophenyl)Sulfonyl)-N-(4-Methylbenzo[d]Thiazol-2-yl)Butanamide]

EC50 [3]: 28.8 ± 4.2 µM
SMILES: Cc1cccc2sc(N(CCN(C)C)C(=O)CCCS(=O)(=O)c3ccccc3)nc12 [VU0500458, N-(2-(Dimethylamino)Ethyl)-N-(4-Methylbenzo[d]Thiazol-2-yl)-4-(Phenylsulfonyl)Butanamide]
